# Structures can show the parent of a compound that is named as a salt. Where two headings read alike, the source gives them in different places.
# Legend:
# Assay type in all cases: physicochemical
# Hygroscopicity (DVS-1) = conditions: between 10% RH and 90% RH at 25° C.; for Hygroscopicity: hydrochloride monohydrate
# Protocol: The hygroscopicity of Forms I and II were investigated using a Surface measurement systems, DVS-1, between 10% RH and 90% RH at 25° C.
# [1] = Crystallization behavior in 98 v/v % aqueous acetonitrile (XRPD); conditions: seeded experiments
# Protocol: Form I crystals were added to 98 v/v % aqueous acetonitrile in a glass vessel. Next, 98 v/v % aqueous acetonitrile was added to make the mixture 40 v/w times relative to the Form I crystal. The mixture was stirred with Teflon-coated magnetic stirrer bar and heated to 80° C. with aluminum block. After the crystals were dissolved, the mixture was cooled to a determined temperature at the rate of 30° C. per hour. After a determined holding time, Form I crystals were added as seed crystals according to object of an experiment. Precipitates were sampled periodically and analyzed by XRPD.
# [2] = Stability under storage conditions (temperature/humidity); conditions: 11% RH at 40° C., 75% RH at 40° C., 11% RH at 60° C. and 75% RH at 60° C. after 2 weeks
# Description: (§1) The crystalline Forms I and II are very stable in many aspects. Both forms are stable under storage conditions. […] Both forms are also stable under physical stress. The XRD charts of both forms were not changed after compression experiments with a planar pestle (1000 kgf/cm^2).
# [3] = Stability under physical stress (compression with planar pestle, XRD); conditions: 1000 kgf/cm^2
# Description: as §1
# [4] = Transformation behavior in 98 v/v % aqueous acetonitrile (seeded slurry, XRPD)
# Protocol: Form I crystals and 40 v/w times volume of 98 v/v % aqueous acetonitrile were added to a glass vessel. The mixture was stirred with Teflon-coated magnetic stirrer bar and heated to 80° C. with aluminum block. After dissolved, solution was cooled to 5° C. at the rate of 30° C. per hour. To the slurry of Form X, 10 w/w % of Form I crystals were added as seed crystals at 5° C., then controlled to a certain temperature. Samples of solid material were analyzed by XRPD on a periodic basis.
# [5] = Stability under photo storage conditions; conditions: light (D65 lamp) of 1.2 million Lux hours at 25° C.
# Description: as §1
# [6] = Solubility in water (shaking 20 minutes, HPLC UV 210 nm); conditions: for solubility at 20 min: thermodynamic from solid; for Solubility in water: hydrochloride monohydrate
# Protocol: Excess amount of the samples, Forms I and II, were suspended in water, and were equilibrated by shaking for 20 minutes at 25° C. or 37° C., respectively. The amounts of dissolved the compound were determined using a Waters alliance HPLC system 2695, detected by UV 210 nm.
# [7] = Solubility measurements of Forms I and II in aqueous acetonitrile (HPLC, equilibrium plateau); conditions: for solubility: aqueous acetonitrile; for Thermodynamic relationship between forms I and II crystals: based on solubility measurements in aqueous acetonitrile
# Protocol: Solubility of Forms I and II was measured at various temperatures between 5° C. and 45° C. in aqueous acetonitrile in which water concentration was from 0 to 10 v/v % respectively.
# Solubility was measured according to the following procedure. Form I or II crystals and an aqueous acetonitrile were added to a glass vessel. The mixture was stirred with a Teflon-coated magnetic stirrer bar at a defined temperature controlled with aluminum block. The liquid phase was sampled periodically, and the concentration of the compound was measured with high performance liquid chromatography (HPLC). Solid material was also collected at the same time to identify the crystal form using XRPD. In analyzing the time course of the change in concentration, that plateau zone was identified as an equilibrium condition, and the mean value of these concentrations was defined as “solubility” under that condition.
# [8] = Transformation behavior in 97 v/v % aqueous acetonitrile (XRPD)
# Protocol: Form X crystals and 97 v/v % aqueous acetonitrile were added to a glass vessel. The mixture was stirred with Teflon-coated magnetic stirrer bar at the temperature controlled with aluminum block. Solid component was sampled periodically and analyzed by XRPD to determine the crystal form.
compound,measurement,setting,value
"O=C(N[C@H]1CN2CCC1CC2)c1cc2cccc(Cl)c2s1 [Form I, (R)-7-chloro-N-(quinuclidin-3-yl)benzo[b]thiophene-2-carboxamide hydrochloride monohydrate]",Hygroscopicity,Hygroscopicity (DVS-1),no hygroscopicity
same,Relative stability of Form I versus Form X,[1],more stable than Form X regardless of temperature
same,Degradation products under storage conditions,[2],No degradation products
same,XRD chart after compression,[3],not changed
same,Relative stability of Form I versus Form X,[4],more stable than Form X regardless of temperature
same,Degradation products under photo storage conditions,[5],no degradation products
same,solubility at 20 min,[6]; 25 °C,39 mg/mL
same,solubility at 20 min,[6]; 37 °C,90 mg/mL
same,solubility,"[7]; 5 °C, organic solvent or mixture, thermodynamic from solid, water concentration 0 v/v %, 5 °C, read-out: Solubility",1 mg/mL
same,solubility,"[7]; 5 °C, organic solvent or mixture, thermodynamic from solid, water concentration 2 v/v %, 5 °C, read-out: Solubility",2.4 mg/mL
same,solubility,"[7]; 5 °C, organic solvent or mixture, thermodynamic from solid, water concentration 6 v/v %, 5 °C, read-out: Solubility",12.8 mg/mL
same,solubility,"[7]; 12.5 °C, organic solvent or mixture, thermodynamic from solid, water concentration 3.5 v/v %, 12.5 °C, read-out: Solubility",5.4 mg/mL
same,solubility,"[7]; 12.5 °C, organic solvent or mixture, thermodynamic from solid, water concentration 8.5 v/v %, 12.5 °C, read-out: Solubility",27.6 mg/mL
same,solubility,"[7]; 25 °C, organic solvent or mixture, thermodynamic from solid, water concentration 0 v/v %, 25 °C, read-out: Solubility",1.3 mg/mL
same,solubility,"[7]; 25 °C, organic solvent or mixture, thermodynamic from solid, water concentration 2 v/v %, 25 °C, read-out: Solubility",4.1 mg/mL
same,solubility,"[7]; 25 °C, organic solvent or mixture, thermodynamic from solid, water concentration 6 v/v %, 25 °C, read-out: Solubility",17.1 mg/mL
same,solubility,"[7]; 25 °C, organic solvent or mixture, thermodynamic from solid, water concentration 10 v/v %, 25 °C, read-out: Solubility",47.5 mg/mL
same,solubility,"[7]; 37.5 °C, organic solvent or mixture, thermodynamic from solid, water concentration 3.5 v/v %, 37.5 °C, read-out: Solubility",10 mg/mL
same,solubility,"[7]; 37.5 °C, organic solvent or mixture, thermodynamic from solid, water concentration 8.5 v/v %, 37.5 °C, read-out: Solubility",44.4 mg/mL
same,solubility,"[7]; 45 °C, organic solvent or mixture, thermodynamic from solid, water concentration 2 v/v %, 45 °C, read-out: Solubility",8.7 mg/mL
same,solubility,"[7]; 45 °C, organic solvent or mixture, thermodynamic from solid, water concentration 6 v/v %, 45 °C, read-out: Solubility",27.2 mg/mL
same,solubility,"[7]; 45 °C, organic solvent or mixture, thermodynamic from solid, water concentration 10 v/v %, 45 °C, read-out: Solubility",71.6 mg/mL
same,Thermodynamic relationship between forms I and II crystals,[7],enantiotropy
same,Relative stability of Form I versus Form X,[8],more stable than Form X regardless of temperature
"O=C(N[C@H]1CN2CCC1CC2)c1cc2cccc(Cl)c2s1 [Form II, (R)-7-chloro-N-(quinuclidin-3-yl)benzo[b]thiophene-2-carboxamide hydrochloride monohydrate]",Channel water absorbed and desorbed,Hygroscopicity (DVS-1),ca. 1 mol
same,Water value increased and decreased by absorption and desorption,Hygroscopicity (DVS-1),approximately 4%
same,Hygroscopicity,Hygroscopicity (DVS-1),there was a hygroscopicity
same,Degradation products under storage conditions,[2],No degradation products
same,XRD chart after compression,[3],not changed
same,Degradation products under photo storage conditions,[5],no degradation products
same,Solubility in water,[6]; 25° C.,30 mg/mL
same,Solubility in water,[6]; 37° C.,54 mg/mL
same,solubility,"[7]; 5 °C, organic solvent or mixture, thermodynamic from solid, water concentration 10 v/v %, 5 °C, read-out: Solubility",29.7 mg/mL
same,solubility,"[7]; water concentration 2 v/v %, 5 °C, hydrochloride monohydrate",2.6
same,solubility,"[7]; water concentration 2 v/v %, 25 °C, hydrochloride monohydrate",4.7
same,solubility,"[7]; water concentration 3.5 v/v %, 12.5 °C, hydrochloride monohydrate",5.7
same,solubility,"[7]; water concentration 6 v/v %, 5 °C, hydrochloride monohydrate",11.2
same,solubility,"[7]; water concentration 6 v/v %, 25 °C, hydrochloride monohydrate",16.7
same,solubility,"[7]; water concentration 6 v/v %, 45 °C, hydrochloride monohydrate",29.6
same,solubility,"[7]; water concentration 8.5 v/v %, 12.5 °C, hydrochloride monohydrate",25.1
same,solubility,"[7]; water concentration 8.5 v/v %, 37.5 °C",44.4
same,solubility,"[7]; water concentration 10 v/v %, 25 °C, hydrochloride monohydrate",44.6
same,solubility,"[7]; water concentration 10 v/v %, 45 °C, hydrochloride monohydrate",74.5
same,Thermodynamic relationship between forms I and II crystals,[7],enantiotropy

# — patent US9550767B2, “Crystalline form of (R)-7-chloro-N-(quinuclidin-3-yl)benzo[b]thiophene-2-carboxamide hydrochloride monohydrate” (Forum Pharmaceuticals, Inc., priority 2010, dated 2017)
